Results published in patent publication US20240140986A1, “SYNTHETIC URSOLIC ACID DERIVATIVES AND METHODS OF USE THEREOF” (REATA PHARMACEUTICALS, INC., priority 2021, published 2024).
Like-named read-outs stand apart in the source and are kept apart here.

Key:
[1] = test system: IFNγ-induced NO production in RAW 264.7 cells; assay: Nitric Oxide Suppression Assay (IFNγ-induced NO, Griess nitrite readout); type: cell-based, mouse; details: for IC50: Mus musculus, read-out: Avg NO IC50 (nM) (Mean ± SD); for Avg NO IC50 Relative to RTA402 (fold): Table 2, ratio to RTA402
How it was run: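 RAW 264.7 mouse macrophages in RPMI 1640 with 0.5% FBS were pretreated 2 h with compound (0.1% DMSO final), then stimulated with 20 ng/mL IFNγ for 24 h at 37° C. Supernatant nitrite was read by Griess absorbance at 525 nm against a nitrite standard curve, normalized to DMSO-IFNγ wells; IC50 from curve fit. Viability by WST-1.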

[2] = test system: Nrf2 / ARE-dependent luciferase in AREc32 reporter cell line; assay: AREc32 luciferase reporter activation (Nrf2 induction); type: cell-based, human; details: for EC (2-fold): Homo sapiens, Arec32; for Relative Avg AREc32 EC2X Relative to RTA402 (fold): ratio to RTA402
How it was run: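 EC2X is the concentration raising luminescence 2-fold above DMSO-treated cells, from a nonlinear-regression dose–response fit. Compounds (0.03–1000 nM) were applied for nineteen hours, starting one day after seeding 20,000 reporter cells per well. Luciferase was read with One-Glo reagent.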

[3] = RAW264.7, Table 2, RAW 264.7 cells, 2 h pretreatment, 20 ng/mL interferon gamma 24 h
[4] = RAW264.7, Table 3, ursolic acid derivatives
[5] = Table 2, concentration increasing luminescence 2-fold above vehicle, 19 h treatment, read-out: Avg AREc32 EC2X (nM) (Mean ± SD)
[6] = Table 3, ursolic acid derivatives, read-out: Avg ARE EC-2X (nM) (Mean ± SD)

Row | SMILES | IC50 [1, 3] [nM] | IC50 [1, 4] [nM] | Avg NO IC50 Relative to RTA402 (fold) [1] [fold] | EC (2-fold) [2, 5] [nM] | EC (2-fold) [2, 6] [nM] | Relative Avg AREc32 EC2X Relative to RTA402 (fold) ([2]; Table 2)
1 | C[C@@H]1[C@H]2[C@H]3C(=O)C=C4[C@@]5(C)C=C(C#N)C(=O)C(C)(C)[C@@H]5CC[C@@]4(C)[C@]3(C)CC[C@@]2(Cn2ccnn2)CC[C@H]1C [Compound T50] | 9.81 ± 2.79 | 9.81 ± 2.79 | 3.18 ± 0.30 | 8.26 ± 1.39 | 8.26 ± 1.39 | 0.666 ± 0.148
2 | C[C@@H]1[C@H]2[C@H]3C(=O)C=C4[C@@]5(C)C=C(C#N)C(=O)C(C)(C)[C@@H]5CC[C@@]4(C)[C@]3(C)CC[C@@]2(Cn2ccnc2)CC[C@H]1C [Compound T51] | 17.4 ± 2.5 | 17.4 ± 2.5 | 5.79 ± 0.73 | 15.3 ± 3.6 | 15.3 ± 3.6 | 1.2 ± 0.1
3 | C[C@@H]1[C@H]2[C@H]3C(=O)C=C4[C@@]5(C)C=C(C#N)C(=O)C(C)(C)[C@@H]5CC[C@@]4(C)[C@]3(C)CC[C@@]2(Cn2cnnn2)CC[C@H]1C [Compound T52] | 8.99 ± 1.84 | – | 3.35 ± 0.65 | 8.74 ± 0.51 | – | 0.654 ± 0.079
4 | COC(=O)N1CCC(=O)N1C[C@]12CC[C@@H](C)[C@H](C)[C@H]1[C@H]1C(=O)C=C3[C@@]4(C)C=C(C#N)C(=O)C(C)(C)[C@@H]4CC[C@@]3(C)[C@]1(C)CC2 [Compound T53] | 2.79 ± 0.59 | – | 0.82 ± 0.08 | 1.74 ± 0.47 | – | 0.173 ± 0.054
5 | C[C@@H]1[C@H]2[C@H]3C(=O)C=C4[C@@]5(C)C=C(C#N)C(=O)C(C)(C)[C@@H]5CC[C@@]4(C)[C@]3(C)CC[C@@]2(CN2NCCC2=O)CC[C@H]1C [Compound T54] | 6.42 ± 1.07 | 6.42 ± 1.07 | 1.84 ± 0.45 | 4.92 ± 1.14 | 4.92 ± 1.14 | 0.403 ± 0.103
6 | C[C@@H]1[C@H]2[C@H]3C(=O)C=C4[C@@]5(C)C=C(C#N)C(=O)C(C)(C)[C@@H]5CC[C@@]4(C)[C@]3(C)CC[C@@]2(CN2CCC2)CC[C@H]1C [Compound T55] | 14.6 ± 3 | 14.6 ± 3 | 5.21 ± 2.77 | 14.4 ± 1.3 | 14.4 ± 1.3 | 1.12 ± 0.09
7 | CO/N=C/[C@]12CC[C@@H](C)[C@H](C)[C@H]1[C@H]1C(=O)C=C3[C@@]4(C)C=C(C#N)C(=O)C(C)(C)[C@@H]4CC[C@@]3(C)[C@]1(C)CC2 [Compound T57] | 20.1 ± 6 | – | 8.81 ± 0.63 | 34.1 ± 4.98 | – | 2.73 ± 0.34
8 | C[C@@H]1[C@H]2[C@H]3C(=O)C=C4[C@@]5(C)C=C(C#N)C(=O)C(C)(C)[C@@H]5CC[C@@]4(C)[C@]3(C)CC[C@@]2(N2CCCC2=O)CC[C@H]1C [Compound T58] | 26 ± 8.8 | 26 ± 8.8 | 8.67 ± 3.30 | 33.6 ± 3.3 | 33.6 ± 3.3 | 2.64 ± 0.47
9 | C[C@@H]1[C@H]2[C@H]3C(=O)C=C4[C@@]5(C)C=C(C#N)C(=O)C(C)(C)[C@@H]5CC[C@@]4(C)[C@]3(C)CC[C@@]2(N2CCOC2=O)CC[C@H]1C [Compound T59] | 16 ± 5 | 16 ± 5 | 5.03 ± 1.61 | 15.4 ± 1.2 | 15.4 ± 1.2 | 1.23 ± 0.26
10 | C[C@@H]1[C@H]2[C@H]3C(=O)C=C4[C@@]5(C)C=C(C#N)C(=O)C(C)(C)[C@@H]5CC[C@@]4(C)[C@]3(C)CC[C@@]2(n2ccnn2)CC[C@H]1C [Compound T60] | 18.2 ± 6.2 | – | 4.94 ± 1.78 | 8.89 ± 1.13 | – | 0.791 ± 0.111
11 | C[C@@H]1[C@H]2[C@H]3C(=O)C=C4[C@@]5(C)C=C(C#N)C(=O)C(C)(C)[C@@H]5CC[C@@]4(C)[C@]3(C)CC[C@@]2(n2cnnn2)CC[C@H]1C [Compound T61] | 12.5 ± 7.3 | – | 4.11 ± 0.26 | 7.53 ± 2.25 | – | 0.601 ± 0.122
12 | C[C@@H]1[C@H]2[C@H]3C(=O)C=C4[C@@]5(C)C=C(C#N)C(=O)C(C)(C)[C@@H]5CC[C@@]4(C)[C@]3(C)CC[C@@]2(n2ccnc2)CC[C@H]1C [Compound T62] | 23.4 ± 5.4 | 23.4 ± 5.4 | 8.76 ± 3.40 | 19.7 ± 2 | 19.7 ± 2 | 1.55 ± 0.28
13 | C[C@@H]1[C@H]2[C@H]3C(=O)C=C4[C@@]5(C)C=C(C#N)C(=O)C(C)(C)[C@@H]5CC[C@@]4(C)[C@]3(C)CC[C@@]2(n2cc(Br)cn2)CC[C@H]1C [Compound T63] | 58.4 ± 9.1 | – | 23.3 ± 10.3 | 76 ± 9.6 | – | 6.8 ± 1.1
14 | C[C@@H]1[C@H]2[C@H]3C(=O)C=C4[C@@]5(C)C=C(C#N)C(=O)C(C)(C)[C@@H]5CC[C@@]4(C)[C@]3(C)CC[C@@]2(n2cccn2)CC[C@H]1C [Compound T64] | 35.8 ± 6.1 | – | 14.80 ± 8.92 | 64 ± 7.6 | – | 6.07 ± 0.87
15 | CCNC(=O)N[C@]12CC[C@@H](C)[C@H](C)[C@H]1[C@H]1C(=O)C=C3[C@@]4(C)C=C(C#N)C(=O)C(C)(C)[C@@H]4CC[C@@]3(C)[C@]1(C)CC2 [Compound T65] | 25.5 ± 4.1 | – | 7.42 ± 3.56 | 12.9 ± 2 | – | 1.14 ± 0.20
16 | COC(=O)N[C@]12CC[C@@H](C)[C@H](C)[C@H]1[C@H]1C(=O)C=C3[C@@]4(C)C=C(C#N)C(=O)C(C)(C)[C@@H]4CC[C@@]3(C)[C@]1(C)CC2 [Compound T66] | 11 ± 3 | – | 4.64 ± 0.70 | 9.91 ± 0.25 | – | 0.857 ± 0.057
17 | C[C@@H]1[C@H]2[C@H]3C(=O)C=C4[C@@]5(C)C=C(C#N)C(=O)C(C)(C)[C@@H]5CC[C@@]4(C)[C@]3(C)CC[C@@]2(F)CC[C@H]1C [Compound T67] | 12.2 ± 3.5 | – | 3.79 ± 1.16 | 11.5 ± 1.6 | – | 0.984 ± 0.119
18 | C[C@@H]1[C@H]2[C@H]3C(=O)C=C4[C@@]5(C)C=C(C#N)C(=O)C(C)(C)[C@@H]5CC[C@@]4(C)[C@]3(C)CC[C@@]2(O)CC[C@H]1C [Compound T68] | 7.24 ± 0.77 | – | 2.70 ± 0.28 | 7.56 ± 0.77 | – | 0.575 ± 0.141
19 | Cc1nnc([C@]23CC[C@@H](C)[C@H](C)[C@H]2[C@H]2C(=O)C=C4[C@@]5(C)C=C(C#N)C(=O)C(C)(C)[C@@H]5CC[C@@]4(C)[C@]2(C)CC3)o1 [Compound T69] | 16.9 ± 5 | 16.9 ± 5 | 4.94 ± 1.27 | 8.08 ± 1.98 | 8.08 ± 1.98 | 0.673 ± 0.139
20 | C[C@@H]1[C@H]2[C@H]3C(=O)C=C4[C@@]5(C)C=C(C#N)C(=O)C(C)(C)[C@@H]5CC[C@@]4(C)[C@]3(C)CC[C@@]2(C(=O)N2CCC2)CC[C@H]1C [Compound T70] | 19.6 ± 6.1 | – | 8.82 ± 3.07 | 21.6 ± 1.3 | – | 1.78 ± 0.34
21 | C[C@@H]1[C@H]2[C@H]3C(=O)C=C4[C@@]5(C)C=C(C#N)C(=O)C(C)(C)[C@@H]5CC[C@@]4(C)[C@]3(C)CC[C@@]2(C(=O)N2CCCC2)CC[C@H]1C [Compound T71] | 19.7 ± 1.8 | – | 13 ± 2.7 | 29.3 ± 8.1 | – | 2.95 ± 0.14
22 | C[C@@H]1[C@H]2[C@H]3C(=O)C=C4[C@@]5(C)C=C(C#N)C(=O)C(C)(C)[C@@H]5CC[C@@]4(C)[C@]3(C)CC[C@@]2(C(=O)NO)CC[C@H]1C [Compound T72] | 36.1 ± 13.8 | – | 20.20 ± 5.71 | 17.2 ± 7 | – | 1.71 ± 0.33
23 | CONC(=O)[C@]12CC[C@@H](C)[C@H](C)[C@H]1[C@H]1C(=O)C=C3[C@@]4(C)C=C(C#N)C(=O)C(C)(C)[C@@H]4CC[C@@]3(C)[C@]1(C)CC2 [Compound T73] | 23.1 ± 6.6 | – | 7.02 ± 1.96 | 7.93 ± 0.82 | – | 0.681 ± 0.159
24 | C[C@@H]1[C@H]2[C@H]3C(=O)C=C4[C@@]5(C)C=C(C#N)C(=O)C(C)(C)[C@@H]5CC[C@@]4(C)[C@]3(C)CC[C@@]2(N2CCC2=O)CC[C@H]1C [Compound T74] | 21 ± 7.6 | 21 ± 7.6 | 5.91 ± 0.94 | 20 ± 2 | 20 ± 2 | 1.67 ± 0.13
